Patent US8530235B2, “Medium that supports culture of an oocyte and modulation of granulosa cell apoptosis” (Adelaide Research & Innovation Pty Ltd., priority 2005, dated 2013)

Assays:
[1] = test system: cumulus expansion of oocytectomised (OOX) complexes; test: FSH-induced cumulus expansion score of OOX complexes; type: cell-based, mice; conditions: OOX complexes
Procedure: Members of the TGF-β superfamily are prime candidates for the mouse cumulus expansion-enabling factor (CEEF). This study was conducted to examine TGF-β superfamily processes regulating cumulus expansion. COCs were collected from eGG-primed mice and the oocyte microsurgically removed to generate oocytectomised (OOX) complexes. […] The type-I receptors for GDF9 and […] are ALK5 and ALK4, respectively. We tested the ability of an ALK4/5/7 kinase inhibitor to neutralize cumulus expansion.

[2] = test system: Smad2/3; test: CAGA-luciferase activity, activation of Smad2/3 (Example 21); type: cell-based
Source text: FIGS. 15A and 15B show the effect of various concentrations of the AlK4/5/7 inhibitor on TGF-β1 stimulated CAGA luciferase activity.

[3] = test system: granulosa cell; test: GDF-9 and oocyte-induced granulosa cell DNA synthesis (Example 21); type: cell-based
Source text: FIGS. 14A and 14B show the effect of an AlK4/5/7 inhibitor on either GDF-9, TGF-β1, or oocyte induced DNA synthesis (Panel A), and the effect of various concentrations of the inhibitor on GDF-9 and oocyte induced DNA synthesis (Panel B).

[4] = test system: Smad 3-responsive CAGA-luciferase reporter; test: Smad 3-responsive CAGA-luciferase reporter in mural granulosa cells from large antral follicles; type: cell-based, marmoset monkey, Callithrix jacchus; conditions: 48 h; 0.5 ng/ml TGFβ1, 88-265 ng/ml GDF9, 50 ng/ml BMP7 or 60 mouse oocytes
Procedure: (§1) FIGS. 18A and 18B show the activation of the TGF-β signalling pathway by GDF9 and oocytes. MGC from large follicles were transiently transfected with either a Smad 3-responsive CAGA-luciferase reporter construct (A) or a Smad 1-responsive BRE-luciferase reporter construct (B). Cells were subsequently left untreated, treated with 0.5 ng/ml TGFβ1, 88-265 ng/ml GDF9, 50 ng/ml BMP7 or co-cultured with 60 mouse oocytes. Cells were cultured for 48 h after which time luciferase activity was measured from cell extracts. Bars represent means+/− SEM from 3 replicate experiments expressed as a fold change relative to control.
(§2) Luciferase reporter constructs responsive to specific phosphorylated Smads were used to detect the activation of mural GC Smad proteins by recombinant GDF9 Mural GCs were collected and processed as described above, except cells were given a final wash in DMEM(MP Biomedicals, Seven Hills, Australia)+2% FCS (Trace Biosciences, Castle Hill, Australia). Following the final wash, cells were transferred to individual wells of a 96-well plate (Falcon) and cultured at 1.6×10^5 cells/ml. After 4 hours of culture, cells were transiently transfected with 50 ng of luciferase reporter construct DNA using Fugene 6 (Roche Diagnostics, Castle Hill, Australia). 18 hours after transfection, medium was aspirated from cells and replaced with DMEM supplemented with 0.1% FCS. Various ligands were added to cells at this point (see below) and the culture period extended for a further 48 hours. Experiments were terminated by removing media from wells and freezing plates at −20° C. […]
(§3) Seven adult female marmosets were primed with […] for 6 days, whole ovaries were removed on day 7, follicles manually excised, and GC were then collected from 3 size classes: periantral (PA; 0.42-0.66 mm), small antral (SA; 0.66-1.5 mm) and large antral (LA; >1.5 mm). […] In order to determine the effects of GDF9 on marmoset GC proliferation, we employed a GC bioassay whereby after 24 h ^3H-thymidine incorporation is assessed as an indicator of DNA synthesis and cellular proliferation. […]

[5] = test system: Smad 1-responsive BRE-luciferase reporter; test: Smad 1-responsive BRE-luciferase reporter in mural granulosa cells from large antral follicles; type: cell-based, marmoset monkey, Callithrix jacchus; conditions: 48 h; 0.5 ng/ml TGFβ1, 88-265 ng/ml GDF9, 50 ng/ml BMP7 or 60 mouse oocytes
Procedure: as §1, §2, §3

[6] = test system: cumulus cells; test: Cumulus cell apoptosis in oocytectomized complexes (OOX) and COC, TUNEL with confocal microscopy; type: cell-based, Bovine; conditions: OOX treated with 100 ng/ml BMP-7 and/or 10% BMP-15
Procedure: Bovine ovaries were collected from local abattoir and transported to the laboratory in warm saline (30-35° C.). Cumulus-oocyte complexes (COC) were aspirated from antral follicles (2- to 8-mm diameter) using an 18-gauge needle and a 10-ml syringe containing ˜2 ml aspiration media (Hepes-buffered Tissue Cultured Medium-199: TCM-199, ICN Biochemicals, Irvine, Calif., USA) supplemented with 50 μg/ml kanamycin (Sigma-Aldrish, St. louis, Mo.), 4 mg/ml fatty acid-free bovine serum albumin (FAF-BSA) (ICPbio ltd, Auckland, NZ). Intact COC with compact cumulus vestment greater than five cell layers and evenly pigmented cytoplasm were selected under a dissecting microscope and washed twice in Hepes-buffered TCM-199 and once in corresponding culturing media.
The cytoplasm of each oocyte was microsurgically removed from the COC (oocytectomy) using a micromanipulator as described in Buccione et al (Buccione et al. (1990) Dev Biol 138, 16-25.). The resulting oocytectomized complex (OOX) consists of a hollow zona pellucida surrounded by several layers of intact CC.
Denuded oocytes (DO) were generated by removing CC from COC by vortexing for approximately 4 minutes in 2 ml H-TCM-199/BSA. Any remaining CC were removed by repeated passage of the oocytes through a fine-bore fire-polished glass pipette in H-TCM-199/BSA.
CC apoptoic DNA was detected using TUNEl (Roche Diagnostic, Penzberg, Germany) according to the manufacturer's instructions. Briefly, following culture COC and OOX complexes were washed twice in PBS (pH 7.4) containing 1% BSA, fixed in 4% paraformaldehyde in PBS (pH 7.4) overnight at 4° C. and washed twice with PBS/BSA before placing on Cell-Tak-coated coverslips (Beckton Dickinson Biosciences, Franklin lakes, N.J.). Complexes were then permeabilized in 0.11/u Triton X-100 in 0.1% sodium citrate for 1 hour at room temperature and washed 3 times in PBS/BSA. The complexes were then incubated in fluorescein-conjugated dUTP and terminal deoxynucleotide transferase (TUNEl reagents, Roche) for 1 hour at 37° C. in the dark. Positive controls were incubated in DNAse 1 (0.005 U/µl), which cleaves all DNA, for 20 minutes at room temperature and washed twice in PBS/BSA before TUNEl. Negative controls were incubated in fluorescein-dUTP in the absence of TdT. After TUNEl, complexes were washed twice in PBS/BSA and counterstained with propidium iodide 0.5 μg/ml (PI) plus RNase A (0.1 mg/ml) for 1 hour at room temperature in the dark to label all nuclei. Complexes were then washed twice in PBS/BSA and mounted with slight coverslip compression in VectaShield anti-bleaching solution (Vector labs, Burlingame, Calif.), and stored in the dark at 4° C. for confocal analysis.
Apoptosis in COC and OOX was visualised and quantified using confocal microscopy. Dual fluorescence emission from CC was detected using a Nikon C1 Confocal Scanning Head and a Nikon TE2000E microscope (Nikon, Tokyo, Japan). Simultaneous emission capture of the apoptotic signal (fluorescein, lacer excitation 488 nm, emission 510-530 nm) and the nuclear signal (propidium iodide, excitation lacer 532, emission 590-640 nm) was performed.
In order to generate an accurate representation of the overall apoptotic incidence for all complexes, the depth of each complex was measured through a Z series to divide the construct into three percentiles (optical Z plane sections) at 25%, 50% and 75%. These optical section images were acquired and saved as independent colour channels (green, apoptotic cumulus fluorescence and red, nuclear cumulus fluorescence). The captured images were then processed in Scanalytics IPlab software Version 3.6. (Scanalytics, Fairfax, Va.). Quantification of CC number (for each colour channel) was independently measured using a macro script utilizing an auto segmentation filter for each optical section percentile (3 optical “z”-plane sections for each complex).

| TGF-β1, GDF9 and oocyte-stimulated activation of Smad2/3 molecules (CAGA-luciferase activity) with inhibitor [2] | Molecule | GDF-9 and oocyte-induced cumulus expansion with inhibitor [1] | GDF-9 and oocyte-induced granulosa cell DNA synthesis with inhibitor [3] | CAGA-luciferase activity above control levels [4] | BRE-luciferase activity compared to control levels [5] | effect on cumulus cell apoptosis [6] |
| --- | --- | --- | --- | --- | --- | --- |
| completely abrogated | NC(=O)c1ccc(-c2nc(-c3ccccn3)c(-c3ccc4c(c3)OCO4)[nH]2)cc1 [ALK4/5/7 kinase inhibitor] | completely neutralised | completely abrogated | – | – | – |
| – | TGF-β1: Transforming growth factor beta 1 [reference compound] | – | – | 19 fold | not activated | – |
| – | BMP-7: Recombinant human BMP-7 obtained from R&D systems (protein, UniProt P18075 293-431, looked up) Bone morphogenetic protein 7: STGSKQRSQNRSKTPKNQEALRMANVAENSSSDQRQACKKHELYVSFRDLGWQDWIIAPEGYAAYYCEGECAFPLNSYMNATNHAIVQTLVHFINPETVPKPCCAPTQLNAISVLYFDDSSNVILKKYRNMVVRACGCH | – | – | not stimulated | 31 fold | significantly reduced |
